≈ marks a conversion by molar mass, not a printed value. Like-named read-outs stand apart in the source and are kept apart here.

Data set [1] has as its system ATF4. In words: HEK-ATF4 High Content Imaging assay (prevention of Tunicamycin induced ISR; ATF4 signal ratio between nucleus and cytoplasm). The data set is classed as cell-based. Particulars: Homo sapiens; Wild-type HEK293 cells, Tunicamycin induced ISR, 6 h; read-out: IIEK-ATF4 Activity. The protocol: HEK-ATF4 High Content Imaging Assay
Example compounds were tested in the HEK-ATF4 High Content Imaging assay to assess their pharmacological potency to prevent Tunicamycin induced ISR. Wild-type HEK293 cells were plated in 384-well imaging assay plates at a density of 12,000 cells per well in growth medium (containing DMEM/F12, 10% FBS, 2 mM L-Glutamine, 100 U/mL Penicillin-100 μg/mL Streptomycin) and incubated at 37° C., 5% CO2. 24 h later, the medium was changed to 50 μL assay medium per well (DMEM/F12, 0.3% FBS, 2 mM L-Glutamine, 100 U/mL Penicillin-100 μg/mL Streptomycin). Example compounds were serially diluted in DMSO, spotted into intermediate plates and prediluted with assay medium containing 3.3 μM Tunicamycin to give an 11-fold excess of final assay concentration. In addition to the example compound testing area, the plates also contained multiples of control wells for assay normalization purposes, wells containing Tunicamycin but no example compounds (High control), as well as wells containing neither example compound nor Tunicamycin (Low control). The assay was started by transferring 5 μL from the intermediate plate into the assay plates, followed by incubation for 6 h at 37° C., 5% CO2. Subsequently, cells were fixed (4% PFA in PBS, 20 min at r.t.) and submitted to indirect ATF4 immunofluorescence staining (primary antibody rabbit anti ATF4, clone D4B8, Cell Signaling Technologies; secondary antibody Alexa Fluor 488 goat anti-rabbit IgG (H+L), Thermofisher Scientific). Nuclei were stained using Hoechst dye (Thermofisher Scientific), and plates were imaged on an Opera Phenix High Content imaging platform equipped with 405 nm and 488 nm excitation. Finally, images were analyzed using script based algorithms. The main readout HEK-ATF4 monitored the ATF4 signal ratio between nucleus and cytoplasm. Tunicamycin induced an increase in the overall ATF4 ratio signal, which was prevented by ISR modulating example compounds. In addition, HEK-CellCount readout was derived from counting the number of stained nuclei corresponding to healthy cells. This readout served as an internal toxicity control.

The target in data set [2] is T1, human ERG potassium channel (hERG) (Homo sapiens, UniProt Q12809).
T1 construct: expressed in transfected cells; host or cells: HEK293, stably transfected, tetracycline-inducible promoter
T1 sequence (Q12809 whole entry): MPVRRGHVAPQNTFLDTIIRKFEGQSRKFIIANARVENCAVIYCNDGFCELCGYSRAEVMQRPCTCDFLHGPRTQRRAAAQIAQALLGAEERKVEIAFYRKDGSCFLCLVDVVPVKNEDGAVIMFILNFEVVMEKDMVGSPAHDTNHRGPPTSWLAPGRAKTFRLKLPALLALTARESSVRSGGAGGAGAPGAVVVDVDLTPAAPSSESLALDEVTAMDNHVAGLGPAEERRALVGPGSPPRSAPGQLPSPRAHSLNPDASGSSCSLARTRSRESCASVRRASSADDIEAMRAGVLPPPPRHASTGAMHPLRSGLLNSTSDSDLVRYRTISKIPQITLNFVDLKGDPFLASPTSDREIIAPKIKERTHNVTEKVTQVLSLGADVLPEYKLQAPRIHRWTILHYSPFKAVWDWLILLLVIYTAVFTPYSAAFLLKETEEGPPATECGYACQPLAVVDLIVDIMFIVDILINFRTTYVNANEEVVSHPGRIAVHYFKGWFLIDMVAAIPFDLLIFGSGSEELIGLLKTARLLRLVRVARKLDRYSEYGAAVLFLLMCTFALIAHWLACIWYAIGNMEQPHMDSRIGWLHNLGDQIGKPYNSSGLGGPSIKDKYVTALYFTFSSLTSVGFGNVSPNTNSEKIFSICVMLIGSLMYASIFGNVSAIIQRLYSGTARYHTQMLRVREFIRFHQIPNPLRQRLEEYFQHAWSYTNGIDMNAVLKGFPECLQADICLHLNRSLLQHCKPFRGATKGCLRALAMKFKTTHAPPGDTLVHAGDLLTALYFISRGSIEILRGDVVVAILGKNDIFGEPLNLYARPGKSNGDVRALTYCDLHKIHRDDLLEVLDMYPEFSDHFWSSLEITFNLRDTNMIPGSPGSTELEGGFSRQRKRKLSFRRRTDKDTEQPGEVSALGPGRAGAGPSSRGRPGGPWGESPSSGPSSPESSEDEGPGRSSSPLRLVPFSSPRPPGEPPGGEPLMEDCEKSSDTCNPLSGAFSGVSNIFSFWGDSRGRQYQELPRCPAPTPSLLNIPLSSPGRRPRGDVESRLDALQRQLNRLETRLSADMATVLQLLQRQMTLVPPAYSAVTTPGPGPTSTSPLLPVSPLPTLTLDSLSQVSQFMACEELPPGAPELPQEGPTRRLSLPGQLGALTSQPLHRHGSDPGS
Nature of the data set: hERG channel tail current recording using in vitro Rapid ICE (automated patch-clamp, QPatch HTX). The data set is classed as cell-based. Particulars: Table 26. The protocol:
Protocol—Measure of the Effect on hERG Channel by Tail Current Recording Using In Vitro Rapid ICE
The potency of the example compounds in inhibiting human ERG potassium channel (hERG) tail current was assessed in a recombinant HEK293 cell line stably transfected with hERG cDNA under an inducible promoter, using Rapid ICE (rapid ion channel electrophysiology) assay. Rapid ICE is an automated patch-clamp assay utilizing the QPatch HTX system (Sophion Bioscience A/S). Briefly, inducible HEK hERG cells were cultivated in minimum essential medium supplemented with 10% FBS, 1% non-essential amino acids, 1% sodium pyruvate, 2 mM 1-glutamine, 15 μg/mL blasticidin, and 100 μg/mL hygromycin. hERG channel expression induction was obtained by adding 10 μg/mL tetracycline for 24, 48, or 72 h before recordings.
On the day of the experiment, cells were detached with TrypLE and prepared to be loaded on the instrument. Cells were resuspended in 7 mL of Serum-Free Media containing 25 mM Hepes and soybean trypsin inhibitor and immediately placed in the cell storage tank of the machine. The composition of the extracellular buffer was (mM): NaCl 137, KCl 4, CaCl2 1.8, MgCl2 1.0, d-glucose 10, N-2-hydroxyethylpiperazine-N′-2-ethanesulfonic acid (HEPES) 10, pH 7.4 with 1 M NaOH. The composition of the intracellular solution was (mM): KCl 130, MgCl2 1.0, ethylene glycol-bis(β-aminoethyl ether)-N,N,N′,N′-tetraacetic acid (EGTA) 5, MgATP 5, HEPES 10, pH 7.2 with 1 M KOH. The voltage protocol included the following steps: step from −80 to −50 mV for 200 ms, +20 mV for 4.8 s, step to −50 mV for 5 s, then step to the holding potential of −80 mV. Compounds were dissolved in DMSO and diluted in extracellular buffer to achieve final test concentrations (0.3, 3, and 30 μM) in 0.3% DMSO. The voltage protocol was run and recorded continuously during the experiment. The vehicle, corresponding to 0.3% DMSO in extracellular buffer was then applied for 3 min, followed by the test substance in triplicate. The standard combined exposure time was 5 min. The average of tail current amplitude values recorded from four sequential voltage pulses was used to calculate for each cell the effect of the test substance by calculating the residual current (% control) compared with vehicle pretreatment. Data were reported as % inhibition for each concentration tested, and IC50 values were estimated using QPatch software. At least two cells were tested, and even more if results diverged.

Data set [3] in a line: Thermodynamic (Equilibrium) solubility in selected buffer. Particulars: Table 25; for solubility: aqueous buffer, thermodynamic from solid. The data set is classed as physicochemical. The protocol:
Protocol—Thermodynamic (Equilibrium) Solubility in Selected Buffer
Example compounds were tested in the Thermodynamic (Equilibrium) solubility in selected buffer assay. The test compound, in powder form, was weighted into a 4 mL glass vial and a calculated volume of selected medium was added to reach the target concentration of the solubility test (1 mg/mL). The solution was then stirred overnight at r.t. protected from the light. The solution was filtered through a 0.45 μm PTFE membrane at ambient temperature. An aliquot of the resulting filtrate was quantified using UPLC-UV method described below against a reference solution of the test compound, 0.8 mg/mL in DMSO. Media compositions: Phosphate buffer 50 mM (pH=2.0) […] of NaH2PO4, H2O in 200 mL of ultrapurified water adjusted at pH 2 with phosphoric acid 85%; Acetate buffer 50 mM (pH=5.5) 820 mg of anhydrous sodium acetate in 200 mL of ultrapurified water adjusted at pH 5.5 with acetic acid 99.8%; Phosphate buffer 50 mM (pH=7.4) 40.5 mL of Na2HPO4 0.1 M solution+9.5 mL of NaH2PO4 0.1 M solution. Analytical conditions: UPLC-UV-MS analyses were performed with a Waters Acquity UPLC HClass-PDA-QDa system using a reverse phase Acquity BEH C18 column (2.1 mm×50 mm, 1.7 μm; temperature: 40° C.) and a gradient of 10-95% B (A=0.1% formic acid in H2O; B=0.05% formic acid in ACN) over 1.8 min then 100% B for 0.8 min, with an injection volume of 0.4 μL at flow rate of 0.65 mL/min. UV chromatograms were recorded at 220 nm, 254 nm and 290 nm using a photo diode array detector. Mass spectra were recorded in the 150 to 900 M/Z range at a sampling rate of 10 scans per sec using a QDa detector. Data were integrated using Empower®3 software. Data Analysis: Equilibrium solubility of the test compound in the selected medium was calculated through the ratio of the surface area of the UV chromatographic peak of the compound in the filtrate to the surface of the UV chromatographic peak of the compound in the reference solution.

The mark [4] stands for this setting: acetate buffer 50 mM, pH 5.5, read-out: Solubility (μg/mL) pH 5.5.
Where [5] appears, read: phosphate buffer 50 mM, pH 2.0, read-out: Solubility (μg/mL) pH 2.0.
Where [6] appears, read: phosphate buffer 50 mM, pH 7.4, read-out: Solubility (μg/mL) pH 7.4.

For `CCN1C[C@@H](NC(=O)COc2ccc(Cl)c(F)c2)CC[C@@H]1c1nnc(-c2ccc(Cl)cc2)o1` [Example 46, 2-(4-chloro-3-fluorophenoxy)-N-[(3S,6R)-6-[5-(4-chlorophenyl)-1,3,4-oxadiazol-2-yl]-1-ethylpiperidin-3-yl]acetamide], the IC50 in data set [1] lay within 1 to 500 nM; in data set [2], 1 to 1000 nM.

Turning to `O=C(COc1ccc(Cl)c(F)c1)N[C@H]1CC[C@H](c2nnc(N3CC(CC(F)(F)F)C3)o2)NC1` [Example 92, 2-(4-chloro-3-fluorophenoxy)-N-[(3S,6R)-6-{5-[3-(2,2,2-trifluoroethyl)azetidin-1-yl]-1,3,4-oxadiazol-2-yl}piperidin-3-yl]acetamide], the figures for the IC50 in data set [1] and in data set [2] were 500 to 2000 nM and 1000 to 5000 nM, respectively.

Consider `O=C(COc1ccc(Cl)c(F)c1)N[C@H]1CC[C@H](c2nnc(-c3ccc(Cl)cc3)o2)NC1=O` (single isomer, unassigned) [Example 108], for which the IC50 in data set [1] fell in the range of 2000 to 15000 nM; in data set [2], 1 to 1000 nM.

With `CC(C)CCOc1nnc([C@H]2CC[C@H](NC(=O)COc3ccc(Cl)c(F)c3)CN2)o1` [Example 70, 2-(4-chloro-3-fluorophenoxy)-N-[(3S,6R)-6-[5-(3-methylbutoxy)-1,3,4-oxadiazol-2-yl]piperidin-3-yl]acetamide], the IC50 in data set [1] lay in the range of 1 to 500 nM; in data set [2] it was 1000 to 5000 nM.

On to `O=C(COc1ccc(Cl)c(F)c1)N[C@H]1CC[C@H](c2nnc(OCC3CCC3(F)F)o2)NC1` (stereo partly drawn) [Example 71, 2-(4-chloro-3-fluorophenoxy)-N-[(3S,6R)-6-{5-[(2,2-difluorocyclobutyl)methoxy]-1,3,4-oxadiazol-2-yl}piperidin-3-yl]acetamide], for which the IC50 in data set [1] fell in the range of 500 to 2000 nM; in data set [2], 1000 to 5000 nM.

Regarding `CN1C[C@@H](NC(=O)COc2ccc(Cl)c(F)c2)CC[C@@H]1c1nnc(OCCOC(F)(F)F)o1` [Example 101, 2-(4-chloro-3-fluorophenoxy)-N-[(3S,6R)-1-methyl-6-{5-[2-(trifluoromethoxy)ethoxy]-1,3,4-oxadiazol-2-yl}piperidin-3-yl]acetamide], the IC50 in data set [1] was 1 to 500 nM; in data set [2], greater than 5000 nM.

As for `N#Cc1cc(OCC(=O)N[C@H]2CC[C@H](c3nnc(OCCOC(F)(F)F)o3)NC2)ccc1Cl` [Example 29, 2-(4-chloro-3-cyanophenoxy)-N-[(3S,6R)-6-{5-[2-(trifluoromethoxy)ethoxy]-1,3,4-oxadiazol-2-yl}piperidin-3-yl]acetamide], the values for the IC50 in data set [1] and in data set [2] were 500 to 2000 nM and greater than 5000 nM, respectively.

For the compound `O=C(COc1ccc(Cl)c(F)c1)N[C@@H]1CC[C@@H](c2nnc(OCCOC(F)(F)F)o2)NC1` [Example 83, 2-(4-chloro-3-fluorophenoxy)-N-[(3R,6S)-6-{5-[2-(trifluoromethoxy)ethoxy]-1,3,4-oxadiazol-2-yl}piperidin-3-yl]acetamide], the IC50 in data set [1] was 1 to 500 nM; in data set [2], greater than 5000 nM.

For `O=C(COc1ccc(Cl)c(F)c1)N[C@@H]1CC[C@@H](c2nnc(-c3ccc(Cl)cc3)o2)NC1=O` (single isomer, unassigned) [Example 109], the figures for the IC50 in data set [1] and in data set [2] were 1 to 500 nM and 1 to 1000 nM, respectively.

As to `O=C(COc1ccc(Cl)c(F)c1)N[C@@H]1CC[C@@H](c2nnc(-c3ccc(Cl)cc3)o2)NC1` [Example 35, 2-(4-chloro-3-fluorophenoxy)-N-[(3R,6S)-6-[5-(4-chlorophenyl)-1,3,4-oxadiazol-2-yl]piperidin-3-yl]acetamide], the IC50 was 1 to 500 nM in data set [1] and 1 to 1000 nM in data set [2].

Consider `O=C(COc1ccc(Cl)c(F)c1)N[C@H]1CC[C@H](c2nnc(OCCO[C@@H]3CC3(F)F)o2)NC1` (single isomer, unassigned) [Example 102], for which the IC50 in data set [1] is 500 to 2000 nM; in data set [2] it was 1000 to 5000 nM.

As to `Cc1ccc(-c2nnc([C@H]3CC[C@H](NC(=O)COc4ccc(Cl)c(F)c4)CN3)o2)cn1` [Example 34, 2-(4-chloro-3-fluorophenoxy)-N-[(3S,6R)-6-[5-(6-methylpyridin-3-yl)-1,3,4-oxadiazol-2-yl]piperidin-3-yl]acetamide], in data set [1], the IC50 lay in the range of 500 to 2000 nM. The solubility in data set [3] (setting [4]) was 239 µg/mL (≈ 536 µM); in data set [3] (setting [5]), 994 µg/mL (≈ 2230 µM); in data set [3] (setting [6]), 153 µg/mL (≈ 343 µM).

Take `Cn1nc(-c2nnc([C@H]3CC[C@H](NC(=O)COc4ccc(Cl)c(F)c4)CN3)o2)cc1Cl` [Example 51, N-[(3S,6R)-6-[5-(5-chloro-1-methyl-1H-pyrazol-3-yl)-1,3,4-oxadiazol-2-yl]piperidin-3-yl]-2-(4-chloro-3-fluorophenoxy)acetamide]: the IC50 in data set [1] lay within 500 to 2000 nM. For the same compound, the solubility in data set [3] (setting [4]) is 4 µg/mL (≈ 8.52 µM); in data set [3] (setting [5]) it was 945 µg/mL (≈ 2010 µM); in data set [3] (setting [6]), 2 µg/mL (≈ 4.26 µM).

In turn, `CC(Oc1ccc(Cl)cc1)C(=O)N[C@H]1CC[C@H](c2nnc(-c3ccc(C(F)(F)F)cc3)o2)NC1` (stereo partly drawn) [Example 4, 2-(4-chlorophenoxy)-N-[(3S,6R)-6-{5-[4-(trifluoromethyl)phenyl]-1,3,4-oxadiazol-2-yl}piperidin-3-yl]propanamide] displayed an IC50 in data set [2] of 1 to 1000 nM.

Turning to `O=C(CO[C@H]1C[C@@H](OC(F)(F)F)C1)N[C@@H]1CC[C@@H](c2nnc(-c3ccc(Cl)cc3)o2)NC1` [Example 5], the solubility came out at 215 µg/mL (≈ 453 µM) in data set [3] (setting [4]) and 278 µg/mL (≈ 585 µM) in data set [3] (setting [6]). Moreover, in data set [3] (pH 2.0), the “Solubility (μg/mL) pH 2.0” value was “quant.^#”.

Values taken from patent US12258338B2, “Modulators of the integrated stress response pathway” (EVOTEC INTERNATIONAL GMBH, priority 2019, dated 2025).
